Experimental data taken from ChEMBL document CHEMBL3421583, “Withanolides with antibacterial activity from Nicandra john-tyleriana” (J Nat Prod, 2015).
Active and inactive are the calls of the source.

Tests used:
Assay type in all cases: functional, organism-based
Bacillus cereus [1] = assay: Antibacterial activity against Bacillus cereus at 2000 ppm after 24 to 48 hrs by disk diffusion method
Bacillus cereus [2] = assay: Antibacterial activity against Bacillus cereus at 2000 ppm after 24 hrs by bioautographic TLC assay
Bacillus cereus [3] = assay: Bactericidal activity against Bacillus cereus BAC1 at 1000 ppm after 24 hrs
Bacillus cereus [4] = assay: Bacteriostatic activity against Bacillus cereus BAC1 at 750 ppm after 24 hrs

Measured: Activity

C[C@]12CC[C@H]3[C@@H](C[C@H]4O[C@]45CC=CC(=O)[C@]35C)[C@@H]1C[C@@H](O)[C@@H]2[C@@H]1C[C@]2(C)C[C@H]1OC(=O)[C@]2(C)O
active: Bacillus cereus [1] | Bacillus cereus [2]

CC1=C(CO)C(=O)O[C@@H]([C@@H](C)[C@H]2C(=O)C[C@H]3[C@@H]4C[C@H]5O[C@]56CC=CC(=O)[C@]6(C)[C@H]4CC[C@]23C)C1
active: all assays above
